The supplement of paper PMC8612539

Tested on: Escherichia coli
Test: minimum inhibitory concentration (MIC)
Description: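 Broth microdilution MIC (Sensititre BOPO7F bovine plate, CLSI methods) of 19 antimicrobials against field isolates of P. multocida, M. haemolytica, H. somni (deep nasopharyngeal swabs) and E. coli, Enterococcus spp. (rectal swabs) from weaned dairy heifers. Incubation 16-24 h at 35 C. MIC is the lowest concentration preventing visible growth. Values with <= or > lie at the tested range limits. Trimethoprim-sulfamethoxazole is given as the trimethoprim component of a 1:19 mixture.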

COc1cc(Cc2cnc(N)nc2N)cc(OC)c1OC.Cc1cc(NS(=O)(=O)c2ccc(N)cc2)no1 [trimethoprim-sulfamethoxazole]
Conditions	minimum inhibitory concentration [µg/mL]
isolate (source animal id): 1	≤ 2
isolate (source animal id): 2	> 2
isolate (source animal id): 3	≤ 2
isolate (source animal id): 4	≤ 2
isolate (source animal id): 5	> 2
isolate (source animal id): 6	> 2
isolate (source animal id): 7	> 2
isolate (source animal id): 8	≤ 2
isolate (source animal id): 9	> 2
isolate (source animal id): 10	> 2
isolate (source animal id): 11	≤ 2
isolate (source animal id): 12	> 2
isolate (source animal id): 13	≤ 2
isolate (source animal id): 14	> 2
isolate (source animal id): 15	≤ 2
isolate (source animal id): 16	≤ 2
isolate (source animal id): 17	> 2
isolate (source animal id): 18	≤ 2
isolate (source animal id): 19	≤ 2
isolate (source animal id): 20	> 2
isolate (source animal id): 21	≤ 2
isolate (source animal id): 22	≤ 2
isolate (source animal id): 23	≤ 2
isolate (source animal id): 24	≤ 2
isolate (source animal id): 25	> 2
isolate (source animal id): 26	≤ 2
isolate (source animal id): 27	> 2
isolate (source animal id): 28	≤ 2
isolate (source animal id): 29	> 2
isolate (source animal id): 30	> 2
isolate (source animal id): 31	> 2
isolate (source animal id): 32	> 2
isolate (source animal id): 33	> 2
isolate (source animal id): 34	≤ 2
isolate (source animal id): 35	> 2
isolate (source animal id): 36	> 2
isolate (source animal id): 37	> 2
isolate (source animal id): 38	> 2
isolate (source animal id): 39	> 2
isolate (source animal id): 40	≤ 2
isolate (source animal id): 41	> 2
isolate (source animal id): 42	> 2
isolate (source animal id): 43	> 2
isolate (source animal id): 44	≤ 2
isolate (source animal id): 45	> 2
isolate (source animal id): 46	≤ 2
isolate (source animal id): 47	> 2
isolate (source animal id): 48	> 2
isolate (source animal id): 49	> 2
isolate (source animal id): 50	> 2
isolate (source animal id): 51	> 2
isolate (source animal id): 52	≤ 2
isolate (source animal id): 53	> 2
isolate (source animal id): 54	≤ 2
isolate (source animal id): 55	≤ 2
isolate (source animal id): 56	≤ 2
isolate (source animal id): 57	> 2
isolate (source animal id): 58	≤ 2
isolate (source animal id): 59	≤ 2
isolate (source animal id): 60	≤ 2
isolate (source animal id): 61	> 2
isolate (source animal id): 62	≤ 2
isolate (source animal id): 63	≤ 2
isolate (source animal id): 64	≤ 2
isolate (source animal id): 65	> 2
isolate (source animal id): 66	≤ 2
isolate (source animal id): 67	≤ 2
isolate (source animal id): 68	≤ 2
isolate (source animal id): 69	≤ 2
isolate (source animal id): 70	≤ 2
isolate (source animal id): 71	≤ 2
isolate (source animal id): 72	≤ 2
isolate (source animal id): 73	≤ 2
isolate (source animal id): 74	≤ 2
isolate (source animal id): 75	≤ 2
isolate (source animal id): 76	> 2
isolate (source animal id): 77	≤ 2
isolate (source animal id): 78	> 2
isolate (source animal id): 79	≤ 2
isolate (source animal id): 80	≤ 2
isolate (source animal id): 81	> 2
isolate (source animal id): 82	≤ 2
isolate (source animal id): 83	≤ 2
isolate (source animal id): 84	≤ 2
isolate (source animal id): 85	≤ 2
isolate (source animal id): 86	> 2
isolate (source animal id): 87	≤ 2
isolate (source animal id): 88	≤ 2
isolate (source animal id): 89	≤ 2
isolate (source animal id): 90	≤ 2
isolate (source animal id): 91	≤ 2
isolate (source animal id): 92	≤ 2
isolate (source animal id): 93	≤ 2
isolate (source animal id): 94	> 2
isolate (source animal id): 95	≤ 2
isolate (source animal id): 96	≤ 2
isolate (source animal id): 97	> 2
isolate (source animal id): 98	≤ 2
isolate (source animal id): 99	≤ 2
isolate (source animal id): 100	≤ 2
isolate (source animal id): 101	> 2
isolate (source animal id): 102	≤ 2
isolate (source animal id): 103	≤ 2
isolate (source animal id): 104	≤ 2
isolate (source animal id): 105	≤ 2
isolate (source animal id): 106	> 2
isolate (source animal id): 107	≤ 2
isolate (source animal id): 108	≤ 2
isolate (source animal id): 109	≤ 2
isolate (source animal id): 110	≤ 2
isolate (source animal id): 111	≤ 2
isolate (source animal id): 112	≤ 2
isolate (source animal id): 113	≤ 2
isolate (source animal id): 114	≤ 2
isolate (source animal id): 115	> 2
isolate (source animal id): 116	≤ 2
isolate (source animal id): 117	≤ 2
isolate (source animal id): 118	≤ 2
isolate (source animal id): 119	> 2
isolate (source animal id): 120	> 2
isolate (source animal id): 121	> 2
isolate (source animal id): 122	> 2
isolate (source animal id): 123	≤ 2
isolate (source animal id): 124	> 2
isolate (source animal id): 125	≤ 2
isolate (source animal id): 126	> 2
isolate (source animal id): 127	> 2
isolate (source animal id): 128	≤ 2
isolate (source animal id): 129	≤ 2
isolate (source animal id): 130	> 2
isolate (source animal id): 131	≤ 2
isolate (source animal id): 132	≤ 2
isolate (source animal id): 133	≤ 2
isolate (source animal id): 134	≤ 2
isolate (source animal id): 135	≤ 2
isolate (source animal id): 136	≤ 2
isolate (source animal id): 137	≤ 2
isolate (source animal id): 138	> 2
isolate (source animal id): 139	> 2
isolate (source animal id): 140	≤ 2
isolate (source animal id): 141	> 2
isolate (source animal id): 142	≤ 2
isolate (source animal id): 143	> 2
isolate (source animal id): 144	≤ 2
isolate (source animal id): 145	> 2
isolate (source animal id): 146	≤ 2
isolate (source animal id): 147	> 2
isolate (source animal id): 148	≤ 2
isolate (source animal id): 149	≤ 2
isolate (source animal id): 150	> 2
isolate (source animal id): 151	≤ 2
isolate (source animal id): 152	≤ 2
isolate (source animal id): 153	≤ 2
isolate (source animal id): 154	≤ 2
isolate (source animal id): 155	≤ 2
isolate (source animal id): 156	> 2
isolate (source animal id): 157	≤ 2
isolate (source animal id): 158	≤ 2
isolate (source animal id): 159	≤ 2
isolate (source animal id): 160	> 2
isolate (source animal id): 161	> 2
isolate (source animal id): 162	≤ 2
isolate (source animal id): 163	≤ 2
isolate (source animal id): 164	≤ 2
isolate (source animal id): 165	≤ 2
isolate (source animal id): 166	≤ 2
isolate (source animal id): 167	≤ 2
isolate (source animal id): 168	≤ 2
isolate (source animal id): 169	≤ 2
isolate (source animal id): 170	≤ 2
